Test results published in patent publication US8680076B2, “Methods of treatment, improvement and prevention using haloaryl substituted aminopurines” (Signal Pharmaceuticals, LLC, priority 2010, dated 2014).
“Also recorded” adds a separate entry of the source.

System: CD-IGS rats
Test: Rat model of excisional wound healing
Type: in vivo
Procedure: Male CD-IGS rats (Strain code 001; n=32-52 per experiment) were obtained from Charles River Laboratories at a body weight of 175-195 g. Rats were housed in regular shoebox cages and allowed to become acclimated for a minimum of 1 week. Rats were fed Harlan Teklad (No. 7001) 4% mouse/rat diet and water ad libitum and were maintained on a 12-hour light/dark cycle.
Suspensions of Compound JNKi-1 were prepared in aqueous 0.5% CMC and 0.25% Tween-80. The formulations were homogenized using a TEFLON® pestle and mortar (Potter-Elvehjem tissue grinder). Vehicle (aqueous solution of 0.5% carboxymethylcellulose, and 0.25% Tween-80) and test article compounds were dosed at a volume of 5 mL/kg. Groups of rats (n=4-8/group) were dosed orally with vehicle, Dexamethasone (0.5 mg/kg) or Compound JNKi-1 (10 mg/kg, 30 mg/kg or 60 mg/kg) daily throughout the study starting 4 days prior to the procedure and continuing for up to […]. Compound JNKi-1 treated groups and the respective vehicle control group were dosed twice daily (bid) with an 8 hr separation between the doses. Dexamethasone treated animals and the respective vehicle control group were dosed once daily (qd) for the duration of the study.
Rats were anesthetized by inhaled isoflurane and the dorsal area was shaved and swabbed with 70% alcohol. Two points were marked 5.5 and 8.5 cm from the base of the skull along the midline. Four further points were marked 1 cm at either side of the midline, two at each of the marked points. These delineated the centers of four excisional wounds. The biopsy punch (6 mm diameter) was aligned vertically over the center of a mark and the epidermis, dermis and panniculus carnosus pierced by applying pressure and twisting at the same time. The skin plug was then removed. This was repeated for the remaining wounds (FIG. 15). The animal was then allowed to recover. All animals were housed singly during the experiment. Rats were monitored twice a day for the first 24 hours following the procedure and then daily until the end of the study. Body weights were recorded two or three times per week. Animals were sacrificed via CO2 asphyxiation at various time-points (day 1, 5, 10 or 14) following wounding.
Each wound size was measured using an electronic digital caliper and the percent of wound remaining open was calculated relative to the initial wound size recorded on day 0 (day of wounding procedure). Four values were averaged for each animal (four wounds on each rat). Measurements were taken at different time-points throughout the study.
Wounds and 2 mm of surrounding tissue were excised using an 8 mm biopsy punch. Wounds were harvested on days 1, 5, 10 and 14 following the procedure. Tissues were fixed in neutral buffered formalin for 3 h then transferred to 100% ethanol. Tissues were paraffin-embedded and four μm cross sections were cut and mounted on poly-lysine slides and stored in slide boxes at room temperature.
One slide for each specimen was stained for H&E to assess granulation-tissue formation and re-epithelialization of the wound gap.
Samples collected on day 10 and 14 were stained with Trichrome Stain (Masson) Kit (Sigma, HT15) to evaluate collagen deposition and remodeling.
Tissue sections were deparaffinized and hydrated to deionized (DI) water. Sections were incubated in preheated Bouin' Solution (Sigma, HT10-132) at 56° C. overnight and then thoroughly rinsed in tap water. Sections were stained in Weigert's Iron Hematoxylin solution (Sigma, HT10-79) for 15 min, washed, and counterstained with Biebrich Scarlet Acid Fuchsin solution. After washing, sections were incubated with Phosphotungstic-Phosphomolybdic acid solution for 15 min and then stained with Aniline Blue solution. Sections were dehydrated and cleared in xylene.
Wound healing was evaluated on day 10 and day 14 after the procedure. H&E sections were scored for re-epithelialization using the following criteria: […]

[1] = 60 mg/kg bid, Studies A and B combined

Compound: O[C@H]1CC[C@H](Nc2ncc3nc(Nc4c(F)cc(F)cc4F)n([C@H]4CCOC4)c3n2)CC1 [JNKi-1, 4-((9-((3S)-tetrahydro-3-furanyl)-8-((2,4,6-trifluorophenyl)amino)-9H-purin-2-yl)amino)-trans-cyclohexanol]
- wound healing (wound size) in words (60 mg/kg b.i.d): delay in wound healing was observed
- delay in wound healing (60 mg/kg b.i.d, n=3 studies): 27%
- healing at day 14 (60 mg/kg bid): fully healed
- rats completely healed by day 10 (healing score) [1]: 5 out of 14
- rats with both incomplete re-epithelialization and collagen remodeling at day 10 [1]: 3 rats
- rats with incomplete new epidermis at day 10 [1]: two
- rats with only partial collagen remodeling at day 10 [1]: 4 rats
- neutrophils recruited into the wounds (MPO IHC) versus controls (60 mg/kg, day 1 post wounding): did not affect inflammatory cell infiltration; also recorded: comparable
- myofibroblast migration into the wound gap (α-SMA IHC) (60 mg/kg, day 5 post wounding): reduced myofibroblast migration; also recorded: few myofibroblasts migrating at the wound edges
- wound size versus vehicle (30 or 10 mg/kg bid): no difference
- healing score versus vehicle control, day 10 (Study C, 10 mg/kg): No significant effect
- rats with both incomplete re-epithelialization and collagen remodeling (Study C, 30 mg/kg, day 10): 5 out of 8
- rats completely healed by day 10 (Study C, 60 mg/kg): None
- healing score versus vehicle control, day 10 (Study C, 60 and 30 mg/kg): significant delay in healing
- time of complete skin repair post wounding (all treated groups): ≤ 14 days
